From ChEMBL document CHEMBL1143342, “Death receptor 5 targeting activity-guided isolation of isoflavones from Millettia brandisiana and Ardisia colorata and evaluation of ability to induce TRAIL-mediated apoptosis” (2009) come the findings set out here.

Calls of active or inactive are those of the source. No cut-off for these calls is given here.

Test [1] relates to AGS. Briefly: Induction of apoptosis in TRAIL-resistant human AGS cells assessed as late apoptotic cells at 40 uM after 24 hrs using annexin-V-FITC/propidium iodide staining by flow cytometry. The class given is functional. On the technique in general: Flow cytometry measures light scatter and fluorescence of single cells or particles in a stream.
Test [2] deals with AGS. Briefly: Induction of apoptosis in TRAIL-resistant human AGS cells assessed as early apoptotic cells at 40 uM after 24 hrs using annexin-V-FITC/propidium iodide staining by flow cytometry. The format is functional.
In test [3] the test system is AGS. Briefly: Induction of apoptosis in TRAIL-resistant human AGS cells assessed as late apoptotic cells at 50 uM after 24 hrs using annexin-V-FITC/propidium iodide staining by flow cytometry. The format is functional.
In test [4] the test system is AGS. Briefly: Induction of apoptosis in TRAIL-resistant human AGS cells assessed as early apoptotic cells at 50 uM after 24 hrs using annexin-V-FITC/propidium iodide staining by flow cytometry. The format is functional.
For test [5], the system named is AGS. Briefly: Induction of apoptosis in TRAIL-resistant human AGS cells assessed as late apoptotic cells at 60 uM after 24 hrs using annexin-V-FITC/propidium iodide staining by flow cytometry. The format is functional.
The subject of test [6] is AGS. Briefly: Induction of apoptosis in TRAIL-resistant human AGS cells assessed as early apoptotic cells at 60 uM after 24 hrs using annexin-V-FITC/propidium iodide staining by flow cytometry. The class given is functional.
The subject of test [7] is AGS. Briefly: Sensitization of TRAIL-induced apoptosis in TRAIL-resistant human AGS cells assessed as late apoptotic cells at 40 uM after 24 hrs using annexin-V-FITC/propidium iodide staining by flow cytometry. The class given is functional.
In test [8] the test system is AGS. Briefly: Sensitization of TRAIL-induced apoptosis in TRAIL-resistant human AGS cells assessed as early apoptotic cells at 40 uM after 24 hrs using annexin-V-FITC/propidium iodide staining by flow cytometry. The class given is functional.
In test [9] the test system is AGS. Briefly: Sensitization of TRAIL-induced apoptosis in TRAIL-resistant human AGS cells assessed as late apoptotic cells at 50 uM after 24 hrs using annexin-V-FITC/propidium iodide staining by flow cytometry. The format is functional.
Test [10] relates to AGS. Briefly: Sensitization of TRAIL-induced apoptosis in TRAIL-resistant human AGS cells assessed as early apoptotic cells at 50 uM after 24 hrs using annexin-V-FITC/propidium iodide staining by flow cytometry. The format is functional.
For test [11], the system named is AGS. Briefly: Sensitization of TRAIL-induced apoptosis in TRAIL-resistant human AGS cells assessed as late apoptotic cells at 60 uM after 24 hrs using annexin-V-FITC/propidium iodide staining assay. The format is functional.
Test [12] relates to AGS. Briefly: Sensitization of TRAIL-induced apoptosis in TRAIL-resistant human AGS cells assessed as early apoptotic cells at 60 uM after 24 hrs using annexin-V-FITC/propidium iodide staining by flow cytometry. The class given is functional.
Test [13] deals with AGS. Briefly: Sensitization of TRAIL-induced apoptosis in TRAIL-resistant human AGS cells assessed as accumulation at sub-G1 phase at 60 uM after 24 hrs using annexin-V-FITC/propidium iodide staining by flow cytometry in presence of DR5/Fc chimeric protein. The format is functional, cell-based.
The test system of test [14] is AGS. Briefly: Induction of TRAIL-induced apoptosis in TRAIL-resistant human AGS cells assessed as increase in caspase 8 activity after 12 hrs by luminescence assay. The class given is functional, cell-based.
The test system of test [15] is AGS. Briefly: Induction of TRAIL-induced apoptosis in TRAIL-resistant human AGS cells assessed as increase in caspase 3/7 activity after 24 hrs by luminescence assay. The format is functional, cell-based.
The subject of test [16] is AGS. Briefly: Induction of DR5 mRNA expression in TRAIL-resistant human AGS cells by RT-PCR. The class given is functional, cell-based.
The subject of test [17] is AGS. Briefly: Induction of DR5 protein expression in TRAIL-resistant human AGS cells after 24 hrs by Western blot analysis. The class given is functional, cell-based.
The test system of test [18] is AGS. Briefly: Sensitization of TRAIL-induced apoptosis in TRAIL-resistant human AGS cells assessed as increase in DR5 expression. The class given is functional, cell-based.
In the next test the test system is DLD-1. Briefly: Induction of DR5 promoter activity in SacI gene expressing human DLD1 cells at 17.5 uM after 24 hrs by luminescence assay. The class given is functional.

With `COc1cc(-c2coc3c4c(cc(O)c3c2=O)OC(C)(C)C=C4)c(OC)cc1O`, the Activity was found to be 5.6% with AGS [1]; 9.6% in the test on AGS [2]; 3.9% in the test with AGS [3]; 15.2% with AGS [4]; 6.9% in the test on AGS [5]; 17.4% in the test with AGS [6]. Further, the Activity with AGS [7] was determined as 12.9%; in the test on AGS [8] it was 12.1%; in the test on AGS [9], 19.5%; in the test with AGS [10] it was 16.3%; in the test on AGS [11], 44.1%; in the test with AGS [12] it was 23.4%. Moreover, the Activity result with AGS [14], in the test with AGS [15], in the test on AGS [16] and with AGS [17] was “Dose-dependent effect” throughout. The result in the test with AGS [13] was inactive. In addition, the result with AGS [18] was Active.
`COc1ccc(-c2coc3cc(O)ccc3c2=O)c(O)c1` [XENOGNOSIN B]: the Activity with DLD-1 was 2.5.
